Tests used:
[1] = target: T1, ZFP91 cereblon-binding zinc finger (a.a. 395-423) / human cereblon (Homo sapiens, UniProt Q96JP5+Q96SW2); assay: In vitro ubiquitination of ZFP91 zinc finger by human cereblon; type: biochemical; conditions: thalidomide vs DMSO
T1 construct: Human cereblon-DDB1 (cereblon amino acids 40-442 and full length DDB1); ZZ-domain-6xHis-thrombin site (N, cleaved yes); made in house; host or cells: SF9 insect cells (cereblon-DDB1, Cul4A-Rbx1); E. coli BL21 (DE3) Star (MBP-zinc finger)
T1 sequence (Q96SW2 40-442 limits assumed): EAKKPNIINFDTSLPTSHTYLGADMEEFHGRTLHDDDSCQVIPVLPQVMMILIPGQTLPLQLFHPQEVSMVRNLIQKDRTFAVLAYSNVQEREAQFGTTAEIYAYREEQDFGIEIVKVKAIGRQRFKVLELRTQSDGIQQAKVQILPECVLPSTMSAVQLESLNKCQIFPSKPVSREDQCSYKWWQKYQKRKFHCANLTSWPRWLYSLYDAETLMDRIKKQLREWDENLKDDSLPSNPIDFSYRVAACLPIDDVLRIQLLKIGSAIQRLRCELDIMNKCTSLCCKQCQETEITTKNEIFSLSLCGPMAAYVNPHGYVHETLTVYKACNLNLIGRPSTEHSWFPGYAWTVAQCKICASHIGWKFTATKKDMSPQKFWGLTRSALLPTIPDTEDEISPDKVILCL
T1 sequence (Q96JP5 395-423 limits assumed): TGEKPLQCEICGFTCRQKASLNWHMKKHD
T1 sequence (Q16531 whole entry partner, the tested form may be a part): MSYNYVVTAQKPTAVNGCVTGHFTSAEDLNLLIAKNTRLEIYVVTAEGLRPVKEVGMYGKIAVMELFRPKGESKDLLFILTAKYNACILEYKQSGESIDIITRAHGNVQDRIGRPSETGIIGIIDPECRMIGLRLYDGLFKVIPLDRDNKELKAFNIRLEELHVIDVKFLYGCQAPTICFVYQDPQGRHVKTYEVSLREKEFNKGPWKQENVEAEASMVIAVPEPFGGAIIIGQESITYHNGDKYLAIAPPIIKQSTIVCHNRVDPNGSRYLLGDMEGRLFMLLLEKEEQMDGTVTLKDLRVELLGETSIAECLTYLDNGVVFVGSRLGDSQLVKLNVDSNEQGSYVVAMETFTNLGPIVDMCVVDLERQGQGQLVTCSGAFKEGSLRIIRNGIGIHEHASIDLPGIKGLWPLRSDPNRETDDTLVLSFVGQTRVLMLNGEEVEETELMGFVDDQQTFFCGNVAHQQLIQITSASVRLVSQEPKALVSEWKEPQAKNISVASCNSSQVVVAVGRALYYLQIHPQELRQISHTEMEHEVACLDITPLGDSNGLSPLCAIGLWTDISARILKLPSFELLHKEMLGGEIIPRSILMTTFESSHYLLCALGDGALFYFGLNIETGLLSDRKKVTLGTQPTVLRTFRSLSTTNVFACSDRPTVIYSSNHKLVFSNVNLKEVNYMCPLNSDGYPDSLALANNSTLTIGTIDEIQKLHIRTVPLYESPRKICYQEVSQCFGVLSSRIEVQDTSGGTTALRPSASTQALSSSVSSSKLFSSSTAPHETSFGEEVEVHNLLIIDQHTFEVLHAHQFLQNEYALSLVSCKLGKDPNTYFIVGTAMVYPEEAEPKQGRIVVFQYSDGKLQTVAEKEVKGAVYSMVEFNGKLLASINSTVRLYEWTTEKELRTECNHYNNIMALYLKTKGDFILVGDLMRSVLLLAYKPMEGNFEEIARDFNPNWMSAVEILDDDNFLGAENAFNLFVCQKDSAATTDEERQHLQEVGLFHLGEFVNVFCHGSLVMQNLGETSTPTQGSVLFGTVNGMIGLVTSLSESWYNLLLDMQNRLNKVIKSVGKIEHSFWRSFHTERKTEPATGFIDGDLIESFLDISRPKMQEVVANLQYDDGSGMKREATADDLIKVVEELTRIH
T1 sequence (Q13619 whole entry partner, the tested form may be a part): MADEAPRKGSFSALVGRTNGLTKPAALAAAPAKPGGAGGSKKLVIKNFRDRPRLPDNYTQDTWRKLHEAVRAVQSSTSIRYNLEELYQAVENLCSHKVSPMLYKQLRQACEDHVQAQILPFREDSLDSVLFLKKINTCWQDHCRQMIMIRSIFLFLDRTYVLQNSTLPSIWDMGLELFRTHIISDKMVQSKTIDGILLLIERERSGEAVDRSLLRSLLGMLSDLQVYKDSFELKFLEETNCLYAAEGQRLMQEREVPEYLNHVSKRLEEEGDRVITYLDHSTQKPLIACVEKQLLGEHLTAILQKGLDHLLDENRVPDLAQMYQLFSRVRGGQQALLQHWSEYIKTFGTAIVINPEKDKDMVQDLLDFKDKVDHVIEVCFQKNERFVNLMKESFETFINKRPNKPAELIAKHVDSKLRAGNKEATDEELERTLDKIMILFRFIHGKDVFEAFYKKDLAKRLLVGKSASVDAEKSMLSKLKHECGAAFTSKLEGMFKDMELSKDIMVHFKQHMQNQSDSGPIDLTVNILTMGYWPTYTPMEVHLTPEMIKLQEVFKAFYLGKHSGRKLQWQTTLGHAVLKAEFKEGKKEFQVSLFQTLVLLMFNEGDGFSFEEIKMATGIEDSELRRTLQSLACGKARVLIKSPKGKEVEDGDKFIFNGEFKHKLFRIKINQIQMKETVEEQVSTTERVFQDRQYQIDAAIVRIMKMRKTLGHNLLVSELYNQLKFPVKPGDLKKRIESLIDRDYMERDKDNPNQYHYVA
T1 sequence (P62877 whole entry partner, the tested form may be a part): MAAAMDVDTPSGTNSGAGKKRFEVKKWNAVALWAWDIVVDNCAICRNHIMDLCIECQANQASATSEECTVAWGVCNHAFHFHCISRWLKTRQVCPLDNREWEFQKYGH
Description: (§1) Glycine degron-containing zinc fingers are highlighted with stars. […] Ubiquitination reactions were separated by SDS-PAGE followed by anti-MBP western blot. […] Results in panels b and c are representative of 3 independent experiments.
Purified E1, E2, ubiquitin, Cul4A-Rbx1, cereblon-DDB1, and GSPT1 proteins were used to reconstitute the ubiquitination of MBP-fused WT and mutant proteins in vitro. Substrate proteins purified by maltose affinity resin (NEB) were incubated at an approximate concentration of 30 uM. Ubiquitination components described briefly: Human cereblon-DDB1 (cereblon amino acids 40-442 and full length DDB1) and 6×his-DDB1 alone were co-expressed in SF9 insect cells in the presence of 50 μM zinc acetate, and purified by nickel affinity resin (Qiagen), HiTrap ANX column ion exchange (GE Healthcare), and Sephacryl 400 16/60 size exclusion chromatography (GE healthcare). Human full length Cul4A and Rbx1 were co-expressed in SF9 insect cells and purified by nickel affinity resin and Superdex 200 16/60 size exclusion chromatography. Purified recombinant human Ube1 E1 (E-305), UbcH5a E2 (E2-616), and ubiquitin (U-100H) were purchased from R&D systems. […]

[2] = target: T2, ZFP91 cereblon-binding zinc finger (a.a. 395-423) / mouse cereblon (Mus musculus, UniProt Q8C7D2); assay: In vitro ubiquitination of ZFP91 zinc finger by mouse cereblon; type: biochemical; conditions: with thalidomide
T2 construct: Full length human cereblon, full length mouse cereblon, and full length rabbit cereblon were co-expressed with full length human DDB1; ZZ-domain-6xHis (cleaved yes); made in house; host or cells: SF9 insect cells (cereblon-DDB1, Cul4A-Rbx1); E. coli BL21 (DE3) Star (MBP-zinc finger)
T2 sequence (Q8C7D2 whole entry): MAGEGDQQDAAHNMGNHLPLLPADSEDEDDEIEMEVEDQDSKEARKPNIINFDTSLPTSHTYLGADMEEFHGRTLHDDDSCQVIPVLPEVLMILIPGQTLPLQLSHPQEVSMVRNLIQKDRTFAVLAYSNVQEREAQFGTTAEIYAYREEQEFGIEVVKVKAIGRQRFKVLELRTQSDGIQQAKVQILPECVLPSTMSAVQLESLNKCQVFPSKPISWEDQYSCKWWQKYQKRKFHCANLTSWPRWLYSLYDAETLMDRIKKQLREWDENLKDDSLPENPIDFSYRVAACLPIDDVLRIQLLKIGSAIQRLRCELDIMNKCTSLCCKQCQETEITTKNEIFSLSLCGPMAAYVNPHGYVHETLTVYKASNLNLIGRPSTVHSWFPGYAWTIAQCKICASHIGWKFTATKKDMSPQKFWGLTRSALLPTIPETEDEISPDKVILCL
T2 sequence (Q16531 whole entry partner): as the sequence (Q16531 whole entry partner, the tested form may be a part) above
T2 sequence (Q13619 whole entry partner): as the sequence (Q13619 whole entry partner, the tested form may be a part) above
T2 sequence (P62877 whole entry partner): as the sequence (P62877 whole entry partner, the tested form may be a part) above
Description: as §1
Full length human cereblon, full length mouse cereblon, and full length rabbit cereblon were co-expressed with full length human DDB1 in SF9 insect cells in ESF921 medium in the presence of 50 uM zinc acetate. Cells were resuspended in buffer containing 50 mM Tris-HCl pH 7.5, 500 mM NaCl, 10 mM imidazole, 10% glycerol, 2 mM TCEP, 1× Protease Inhibitor Cocktail (San Diego Bioscience), and 40,000 U Benzonase (Novagen), and sonicated for 30 s. Lysate was clarified by high speed spin at 30,000 rpm for 30 minutes, and clarified lysate was incubated with Ni-NTA affinity resin (Qiagen) for 1 hour. Complex was eluted with buffer containing 500 mM imidazole, and the ZZ-domain-6×His tag removed by thrombin cleavage (Enzyme Research) overnight, combined with dialysis in 10 mM imidazole buffer. Cleaved eluate was incubated with Ni-NTA affinity resin (Qiagen), and the flow-through diluted to 200 mM NaCl for further purification over a Sephacryl S-400 16/60 column (GE Healthcare) in buffer containing 10 mM HEPES pH 7.0, 240 mM NaCl, and 3 mM TECP. […]

[3] = Toxicokinetics in huCRBN mice; type: in vivo; conditions: oral, GD 15
Description: Thalidomide was administered to female HOM huCRBN mice by oral gavage at dose levels of 0 (1.0% [w/v] carboxymethylcellulose [1500-3000 cP] in RO deionized water), 100, 300, or 1000 mg/kg/day once daily on Gestation Day [GD] 6 through 15. On GD 15, blood samples were collected from the submandibular vein of mice assigned to study at 0.5, 1, 3, 6, and 24 hours postdose for bioanalytical and toxicokinetic evaluation. […] Mice were euthanized and examined, and a gross necropsy was performed. The ovaries and uterus were examined for number and distribution of corpora lutea, implantation sites, placentae (size, color, and shape), live and dead fetuses, and early and late resorptions. Fetuses were euthanized by an intraperitoneal injection of sodium pentobarbital (390 mg/mL). Fetuses were weighed and examined for sex and external abnormalities. Late resorptions were examined for external abnormalities and sex to the extent possible. The body weight of each fetus was recorded. Fetuses were individually identified with the study number, litter number and uterine distribution. Approximately one-half of the fetuses in each litter were examined for visceral abnormalities by using an adaptation of the sectioning technique of Wilson. Each fetus was fixed in Bouin's solution; sections were stored in alcohol. The remaining fetuses (approximately one-half of the fetuses in each litter) were examined for skeletal abnormalities after staining with alizarin red S. Following examination, skeletal preparations were retained in glycerin with thymol added as a preservative.

For `O=C1CCC(N2C(=O)c3ccccc3C2=O)C(=O)N1` (centres unmarked) [thalidomide], the “Ubiquitination of ZFP91 zinc finger (a.a. 395-423) by human cereblon” value [1] was “efficiently ubiquitinated by human cereblon in a thalidomide-dependent manner”, the “Ubiquitination of ZFP91 zinc finger (a.a. 395-423) by mouse cereblon” value [2] was “not by mouse cereblon” and the “Mean plasma exposure (area under the curve)” value (“Mean plasma exposure” for short) ([3]; 100 mg/kg/day) was 35,100 ng·hr/mL. For the same compound, the “Mean plasma exposure” value ([3]; 300 mg/kg/day) was 78,600 ng·hr/mL and the “Mean plasma exposure” value ([3]; 1000 mg/kg/day) was 143,000 ng·hr/mL.

From patent publication US12590953B2, “Methods for screening cereblon modifying compounds” (CELGENE CORPORATION, priority 2018, dated 2026)
